Reference: patent US5916906A, “Compositions comprising nicotinylalanine and an inhibitor of glycine conjugation or vitamin B6” (priority 1997, dated 1999)
Where “and” joins values, the source holds several entries; their conditions need not be identical. Equal values may be shown once.

Key:
Assay type in all cases: in vivo, C57BL/6 mice
[1] = tested on: LP-BM5 MuLV Retrovirus; experiment: MAIDS model: disease stage score, attainment of disease score 4 (Kaplan-Meier) and survival up to 28 weeks
Excerpt: Each value represents the mean and one standard standard deviation for groups of surviving mice (at least 4 mice per group) at termination of the study, following 28 weeks post-inoculation by LP-BM5 virus.
(§1) Each group consisted of 8 mice, except for the virus-negative control group which consisted of 6 mice.
as §1
(§2) This study was designed to determine whether nicotinylalanine (NAL) alone or in combination with acetylsalicylic acid (ASA) will prevent or alter the course of murine retroviral-induced immunodeficiency disease, MAIDS, in C57BL/6 female mice. The LP-BM5 MuLV virus used for these studies was prepared from chronically infected SC-1 cells (ATCC Cat. No. CRL-1404), as described by Yetter R. A. et al., J. Exp. Med., 168, 623-635, 1988. […] The MAIDS model is well characterized and reproducible in the laboratory, as described by Mosier D. E. et al., J. Exp. Med. 161, 766-784, 1985.
(§3) Measures of disease progression followed the methods developed by Eiseman et al., 1991 (Ibid). Disease scores 0 through +4 are based upon body weight gain and palpable alterations in the size of lymph nodes and spleen. Severity of disease is scored as follows: 0.5, increased body weight and variably detected increase in size of any one lymph node or spleen; +1, clearly detectable increase in the size of a lymph node and spleen; +2, readily detectable (greater than 0.3 cm in diameter) increased size in more than one lymph node and, in particular, enlargement of subcervical, brachial or axillary nodes; +3, increased size of all palpable nodes and palpable splenomegaly (≥0.3 grams); +4, advanced disease with extensive splenomegaly (>1.0 grams) and lymphadenopathy.
(§4) Specific pathogen free, female C57BL/6 mice (5 weeks of age) were purchased from Charles River Breeding Laboratories. All mice were allowed one week to acclimate to housing facilities prior to randomization for study. Animals were marked for identification and placed in microisolator cages with identifying cards (5 mice/cage), where autoclaved food and water were provided ad libitum.
(§5) NAL and ASA were formulated under sterile conditions according to preformulation methods outlined in Remington's Pharmaceutical Sciences Handbook, 18th Edition, 1990, ibid). NAL and ASA were dissolved in sterile phosphate-buffered normal saline solution (i.e., vehicle; Biofluids Inc., Lot 413054), adjusted to between pH 7.2 to 7.4 with […], sterilized by filtration through 0.2 μm bottle-type filters, and dispersed into sterile glass vials, sealed and capped (Wheaton Inc.).
(§6) Except for Group 6 (which began treatment 2 weeks after virus inoculation),test drug injections began 1 day after virus infection and continued every day except weekends (i.e., 5 times per week).

[2] = tested on: LP-BM5 Retrovirus; experiment: Ecotropic virus XC plaque assay on spleen cells of treated LP-BM5 infected mice; settings: four months after inoculation, mean ± standard deviation, NAL 400 mg/kg
Excerpt: FIG. 4A and 4B: Mean Number of Virus Particles as Determined from Plaques per Million Spleen Cells from Serially Sacrificed Mice at Monthly Intervals After Inoculation with LP-BM5 Retrovirus. […] Each ml of the virus pool contained 3.66 log PFU ecotropic virus as determined by XC Plaque Assay. Treatment in all groups began one day after virus inoculation, except for the NAL 400 Delay Group which began treatment two weeks after virus inoculation. Groups and treatments are as follows:
FIG. 4B: LP-BM5+PBS=as described above; NAL 400=virus positive, plus daily (M-F) i.p. injections of nicotinylalanine (400 mg/kg) only; NAL 400 delay=nicotinylalanine (400 mg/kg) only, injected i.p. daily (M-F) beginning two weeks after virus inoculation.
Ecotropic virus titers were determined using the XC plaque assay (Yetter R. A. et al., J. Exp. Med., 168, 623-635, 1988) and were performed on spleen cells cultured from all serially killed mice at the interim sacrifices as shown in Tables 2-A & 2-B). Spleens were weighed and cells were extruded with sterile media (RPMI 1640, with gentamycin and 10% fetal calf serum). Serial 10-fold dilutions were made and one ml of each dilution was overlayered onto a monolayer of SC-1 cells treated with 4 μg/ml polybrene. After 24 hours, the media was removed and washed and the SC-1 cells were fed with fresh media. When the monolayer was confluent, the plates were irradiated with UV light at 60 ergs/mm^2 /sec and overlayered with XC cells. When the XC cell layer was confluent, the plates were fixed with methanol and stained with Giemsa Stain. Plaques were counted on an Artek colony counter and confirmed by phase contrast microscopy. Values presented in FIG. 4A represent the mean of adjusted samples at three dilutions expressed as plaques per million spleen cells. Mean and standard deviations corresponding to each of the data points in FIGS. 4A and 4B are derived from three mice serially killed at interim sacrifice times.

[3] = tested on: LP-BM5 MuLV Retrovirus; experiment: MAIDS model, interim sacrifices: body weight, disease score, spleen weight; settings: for Body Wt. / Spleen Wt.: individual mouse; for Disease Score: scores 0 through +4, individual mouse
Description: as §2, §3, §4, §5, §6
Disease progression was monitored by measuring serum IgM levels by ELISA on all animals at monthly intervals during the course of disease. Three mice per group were randomly selected and sacrificed at monthly intervals (end of month one through four) of the study. Disease scores for each animal were recorded weekly based upon palpation of lymph nodes and spleen. Complete gross necropsies were performed on these euthanized animals and the ratio of recorded spleen to body weights was an additional indicator of diseases progression. […] Infection was quantified by ecotropic virus XC plaque assays of spleens removed from the interim sacrificed animals.

[4] = Plasma nicotinamide levels in LP-BM5 infected mice (HPLC); settings: NAL 400 mg/kg; for Mean Plasma Nicotinamide Level: virus-positive, mean ± SD
Description: Mice were sacrificed on Tuesdays at monthly intervals after
inoculation, approximately 24 hours after their last treatment.
At time of sacrifice, blood was collected by cardiac puncture and stored
Results are expressed as mean concentrations ± standard deviation in

[5] = NAL 400 mg/kg delayed by two weeks, FIG. 5
[6] = 1 month postinoculation, NAL 200 mg/kg i.p. (no ASA)
[7] = 1 month postinoculation, NAL 400 mg/kg i.p., delayed Rx 2 weeks
[8] = 1 month postinoculation, treatment from day 1: NAL 400 mg/kg i.p., ASA 20 mg/kg i.p., AZT 1 mg/ml in drink water
[9] = 2 months postinoculation, NAL 200 mg/kg i.p. (no ASA)
[10] = 2 months postinoculation, NAL 400 mg/kg i.p., delayed Rx 2 weeks
[11] = 2 months postinoculation, treatment from day 1: NAL 400 mg/kg i.p., ASA 20 mg/kg i.p., AZT 1 mg/ml in drink water
[12] = 3 months postinoculation, NAL 400 mg/kg i.p., delayed Rx 2 weeks
[13] = 3 months postinoculation, treatment from day 1: NAL 400 mg/kg i.p., ASA 20 mg/kg i.p., AZT 1 mg/ml in drink water
[14] = 4 months postinoculation, NAL 400 mg/kg i.p., delayed Rx 2 weeks
[15] = 4 months postinoculation, treatment from day 1: NAL 400 mg/kg i.p., ASA 20 mg/kg i.p., AZT 1 mg/ml in drink water

With `NC(CC(=O)c1cccnc1)C(=O)O` (racemic) [NAL, γ-(3-pyridyl)-γ-oxo-α-aminobutyrate] the “Survival vs LP-BM5 virus-positive control (log-rank p)” value ([1]; NAL 400 mg/kg after two week delay, FIG. 6) was 0.2492, the “Retardation of disease progression (score +4), Log-Rank p” value [1, 5] was 0.0469 and the “Retardation of disease progression (score +4), Wilcoxon p” value [1, 5] was 0.0258. For the same molecule, the “Survival vs vehicle-injected control (Wilcoxon p)” value ([1]; NAL 400 mg/kg delayed by two weeks, FIG. 6) was 0.1756, the “Survival vs LP-BM5 virus-positive control (log-rank p)” value ([1]; treatment from day 1, FIG. 6) was 0.9621 and the “Virus titer, plaques per million spleen cells” value ([2]; ASA 20 mg/kg, AZT 1 mg/mL) was 3,410±4,606 plaques per million spleen cells. The “Virus titer, plaques per million spleen cells” value ([2]; delayed two weeks) was 796±463 plaques per million spleen cells, the “Body Wt.” value [3, 6] was 21.9 Grams and 21.8 Grams and 23.4 Grams and the “Spleen Wt.” value [3, 6] was 0.080 Grams and 0.257 Grams and 0.123 Grams. The “Body Wt.” value [3, 7] was 20.4 Grams and 20.5 Grams and 22.3 Grams, the “Spleen Wt.” value [3, 7] was 0.103 Grams and 0.151 Grams and 0.136 Grams and the “Body Wt.” value [3, 8] was 21.3 Grams and 20.4 Grams and 19.6 Grams. For the same molecule, the “Spleen Wt.” value [3, 8] was 0.186 Grams and 0.309 Grams and 0.159 Grams, the “Disease Score” value [3, 6] was 0 and 1 and 0.5 and the “Disease Score” value [3, 7] was 0 and 0.5. The “Disease Score” value [3, 8] was 1, the “Body Wt.” value [3, 9] was 22.5 Grams and 23.8 Grams and 22.2 Grams and the “Spleen Wt.” value [3, 9] was 0.229 Grams and 0.098 Grams and 0.302 Grams. For the same molecule, the “Body Wt.” value [3, 10] was 21.2 Grams and 20.0 Grams and 26.6 Grams, the “Spleen Wt.” value [3, 10] was 0.168 Grams and 0.086 Grams and 0.320 Grams and the “Body Wt.” value [3, 11] was 21.6 Grams and 24.0 Grams. The “Spleen Wt.” value [3, 11] was 0.289 Grams and 0.216 Grams and 0.125 Grams, the “Disease Score” value [3, 9] was 1 and 0.5 and 2 and the “Disease Score” value [3, 10] was 1 and 0 and 2. For the same molecule, the “Disease Score” value [3, 11] was 1 and 2, the “Body Wt.” value [3, 12] was 23.8 Grams and 25.3 Grams and 26.3 Grams and the “Spleen Wt.” value [3, 12] was 0.090 Grams and 0.112 Grams and 0.175 Grams. The “Body Wt.” value [3, 13] was 23.6 Grams and 22.3 Grams and 24.6 Grams, the “Spleen Wt.” value [3, 13] was 0.112 Grams and 0.341 Grams and 0.086 Grams and the “Disease Score” value [3, 12] was 0 and 0.5 and 1. For the same molecule, the “Disease Score” value [3, 13] was 0.5 and 2, the “Body Wt.” value [3, 14] was 26.8 Grams and 27.5 Grams and 24.5 Grams and the “Spleen Wt.” value [3, 14] was 0.399 Grams and 0.157 Grams and 0.083 Grams. For the same molecule, the “Body Wt.” value [3, 15] was 27.6 Grams and 28.0 Grams and 25.5 Grams, the “Spleen Wt.” value [3, 15] was 0.119 Grams and 1.030 Grams and 0.240 Grams and the “Disease Score” value [3, 14] was 3 and 1 and 0.5. For the same molecule, the “Disease Score” value [3, 15] was 0.5 and 4 and 2, the “Ratio of plasma nicotinamide mean to placebo (PBS Control, Group 1)” value (“Ratio of plasma nicotinamide mean” for short) ([4]; Month 1, ASA 20 mg/kg, AZT as in Table 4) was 1.06 and the “Ratio of plasma nicotinamide mean” value ([4]; Month 1, delayed 2 weeks) was 1.16. For the same molecule, the “Mean Plasma Nicotinamide Level” value ([4]; Month 1, ~24 h after last treatment, ASA 20 mg/kg, AZT printed 1 mg/kg) was 3.4 ± 0.9 nmol/mL, the “Mean Plasma Nicotinamide Level” value ([4]; Month 1, delayed Rx 2 weeks) was 3.7 ± 1.1 nmol/mL and the “Ratio of plasma nicotinamide mean” value ([4]; Month 2, ASA 20 mg/kg, AZT as in Table 4) was 1.13. The “Ratio of plasma nicotinamide mean” value ([4]; Month 2, delayed 2 weeks) was 1.49, the “Mean Plasma Nicotinamide Level” value ([4]; Month 2, ~24 h after last treatment, ASA 20 mg/kg, AZT printed 1 mg/kg) was 4.4 ± 0.5 nmol/mL and the “Mean Plasma Nicotinamide Level” value ([4]; Month 2, delayed Rx 2 weeks) was 5.8 ± 0.5 nmol/mL. The “Ratio of plasma nicotinamide mean” value ([4]; Month 3, ASA 20 mg/kg, AZT as in Table 4) was 1.35, the “Ratio of plasma nicotinamide mean” value ([4]; Month 3, delayed 2 weeks) was 1.65 and the “Mean Plasma Nicotinamide Level” value ([4]; Month 3, ~24 h after last treatment, ASA 20 mg/kg, AZT printed 1 mg/kg) was 3.1 ± 0.4 nmol/mL. For the same molecule, the “Mean Plasma Nicotinamide Level” value ([4]; Month 3, delayed Rx 2 weeks) was 3.8 ± 0.1 nmol/mL, the “Ratio of plasma nicotinamide mean” value ([4]; Month 4, ASA 20 mg/kg, AZT as in Table 4) was 1.88 and the “Ratio of plasma nicotinamide mean” value ([4]; Month 4, delayed 2 weeks) was 1.84. The “Mean Plasma Nicotinamide Level” value ([4]; Month 4, ~24 h after last treatment, ASA 20 mg/kg, AZT printed 1 mg/kg) was 4.7 ± 0.5 nmol/mL and the “Mean Plasma Nicotinamide Level” value ([4]; Month 4, delayed Rx 2 weeks) was 4.6 ± 0.3 nmol/mL.
